The values below come from ChEMBL document CHEMBL1125432, “Generation of N-methyl-D-aspartate agonist and competitive antagonist pharmacophore models. Design and synthesis of phosphonoalkyl-substituted tetrahydroisoquinolines as novel antagonists” (J Med Chem, 1992).

One assay addresses Glutamate NMDA receptor. Nature of the assay: Displacement of [3H]CPP from N-methyl-D-aspartate glutamate receptor in rat brain membrane. The class given is cell membranes.
On to `O=C(O)C1NCCc2cc(CP(=O)(O)O)ccc21` (configuration not stated), for which the IC50 – broadly, the point on the concentration scale where inhibition reaches its midpoint – came to 61 µM.

`N[C@H](C(=O)O)[C@H]1C[C@H]1C(=O)O`: the concentration for half-maximal inhibition (IC50) turned out to be 10 µM.

Take `O=C(O)[C@H]1CN(C(c2ccccc2)P(=O)(O)O)CCN1` (some centres not stated): the IC50 was above 13.3 µM.

As to `O=C(O)C1CN(Cc2ccccc2CP(=O)(O)O)CCN1` (configuration not stated), the IC50 is above 100 µM.

Take `NC(CCCP(=O)(O)O)C(=O)O` (configuration not stated): the IC50 came out at 0.28 µM.

For the compound `NC(CCCCP(=O)(O)O)C(=O)O` (configuration not stated), the IC50 is 42 µM.

For the compound `O=C(O)CCc1cccc2c1CCNC2C(=O)O` (configuration not stated), the IC50 was 14.5 µM.

Consider `O=C(O)C1CN(Cc2ccccc2P(=O)(O)O)CCN1` (configuration not stated), for which the IC50 is above 100 µM.

The compound `O=C(O)C1NCCc2ccc(CP(=O)(O)O)cc21` (configuration not stated) had an IC50 of 37.2 µM. This counts as double-digit micromolar.

Regarding `NC(CC(=O)NCP(=O)(O)O)C(=O)O` (configuration not stated), the IC50 came out at 2.8 µM.

In the case of `O=C(O)C1NCCC2CCC(P(=O)(O)O)CC21` (configuration not stated), the IC50 was found to be 5.6 µM.

`O=C(O)CNC/C=C/CP(=O)(O)O` showed an IC50 of 1.2 µM.

`N[C@@H](CC(=O)O)C(=O)O` [ASPARTIC ACID] gave a concentration for half-maximal inhibition (IC50) of 10 µM. Against the preceding compound, the IC50 is about 8.3-fold higher.

As for `NC(Cc1cccc(CP(=O)(O)O)c1)C(=O)O` (configuration not stated), the IC50 worked out at 3.3 µM.

`CC([C@H]1CCN[C@H](C(=O)O)C1)P(=O)(O)O` (some centres not stated) came in with a concentration for half-maximal inhibition (IC50) of 0.8 µM.

`O=C1CN(CCCP(=O)(O)O)CC(C(=O)O)N1` (configuration not stated) showed an IC50 of 30 µM.

For `NC(CCP(=O)(O)O)C(=O)O` (configuration not stated), the IC50 is above 100 µM.

For the compound `Cc1c(CP(=O)(O)O)ccnc1C(=O)O`, the IC50 is above 100 µM.

For `NC(C(=O)O)c1cc(CP(=O)(O)O)cc(-c2ccccc2)c1` (configuration not stated), the 50% inhibitory concentration (IC50) is 50 µM.

Compound `NC(CCCCC(N)C(=O)O)C(=O)O` (configuration not stated) came in with an IC50 above 100 µM.

`N[C@@H](CNCP(=O)(O)O)C(=O)O` returned an IC50 of 4.3 µM.

In turn, `NC(C(=O)O)c1cccc(C(=O)O)c1` (configuration not stated) had an IC50 of 25 µM.

In turn, `N[C@@]1(C(=O)O)CC[C@H](C(=O)O)C1` returned a half-inhibitory concentration (IC50) of 10 µM. This IC50 lies about 2.5-fold lower than the previous one.

Take `NC(C(=O)O)c1ccc(P(=O)(O)O)cc1` (configuration not stated): the 50% inhibitory concentration (IC50) is above 100 µM.

`O=C(O)C1CN(CCCP(=O)(O)O)C(=O)CN1` (configuration not stated) displayed a half-maximal inhibitory concentration (IC50) of 32 µM. This lies in the double-digit micromolar range.

Regarding `N[C@H](CC(=O)O)C(=O)O` [D-ASPARTATE], the IC50 is 10 µM. Compared with the last compound, the IC50 is about 3.2-fold lower.

Compound `N[C@H](C(=O)O)[C@@H]1C[C@@H]1C(=O)O` registered a concentration for half-maximal inhibition (IC50) below 0.1 µM.

As for `NC(CCCCCP(=O)(O)O)C(=O)O` (configuration not stated) [AP-7], the concentration for half-maximal inhibition (IC50) was found to be 0.77 µM. This counts as sub-micromolar.

For `O=C(O)CNCc1ccc(CP(=O)(O)O)cc1`, the half-maximal inhibitory concentration (IC50) is 5.2 µM.

A further assay has as its target Glutamate NMDA receptor. Nature of the assay: Ability to displace [3H]CPP from NMDA receptor in rat brain membrane. The class given is cell membranes.
For the compound `O=C(O)[C@@H]1C[C@H](CP(=O)(O)O)CCN1` [SELFOTEL], the IC50 was determined as 0.054 µM.

The compound `NC(C(=O)O)c1ccc(CP(=O)(O)O)c2ccccc12` (configuration not stated) displayed an IC50 of 74 µM.

`NC(C(=O)O)c1ccc(CCCP(=O)(O)O)cc1` (configuration not stated) had a half-inhibitory concentration (IC50) above 100 µM.

On to `NC(C[S+]([O-])CP(=O)(O)O)C(=O)O` (configuration not stated), for which the IC50 amounted to 0.14 µM.

On to `O=C(O)[C@H]1CN(C(c2ccccc2)P(=O)(O)O)CCN1` (some centres not stated), for which the IC50 was determined as 5.8 µM.

Consider `NC(C(=O)O)c1ccc(CP(=O)(O)O)o1` (configuration not stated), for which the IC50 came out at 5.9 µM.

`O=C(O)C1Cc2c(CCP(=O)(O)O)cccc2CN1` (configuration not stated): the IC50 is 0.27 µM.

The compound `NC(Cc1ccccc1P(=O)(O)O)C(=O)O` (configuration not stated) showed a concentration for half-maximal inhibition (IC50) above 100 µM.

As to `NC(Cc1ccccc1CP(=O)(O)O)C(=O)O` (configuration not stated), the IC50 was determined as 8.4 µM. That is a single-digit micromolar value.

In turn, `NC(C(=O)O)c1ccc(CP(=O)(O)O)cc1` (configuration not stated) had a 50% inhibitory concentration (IC50) of 0.99 µM.

With `NC(C(=O)O)c1cccc(CCP(=O)(O)O)c1` (configuration not stated), the half-maximal inhibitory concentration (IC50) was above 100 µM.

In the case of `O=C(O)C1Cc2cc(CP(=O)(O)O)ccc2CN1` (configuration not stated), the IC50 came out at 4.08 µM.

For `NC(C(=O)O)c1ccc(CP(=O)(O)O)cc1Br` (configuration not stated), the concentration for half-maximal inhibition (IC50) was 24 µM.

Compound `NC(C(=O)O)C1CCC(CP(=O)(O)O)CC1` (configuration not stated) had a 50% inhibitory concentration (IC50) of 13 µM.

`O=C(O)CCCN1CCN[C@@H](C(=O)O)C1`: the IC50 was found to be 0.79 µM.

`NC(C#CP(=O)(O)O)C(=O)O` (configuration not stated) yielded an IC50 of 0.45 µM. This IC50 lies about 1.8-fold lower than the previous one.

In the case of `O=C(O)C1CN(Cc2cccc(P(=O)(O)O)c2)CCN1` (configuration not stated), the IC50 was determined as 83 µM.

`O=C(O)C1CN(CCCP(=O)(O)O)CCN1` (configuration not stated) registered a half-inhibitory concentration (IC50) of 0.082 µM.

`NC(CCCC(=O)O)C(=O)O` (configuration not stated): the IC50 turned out to be 13 µM.

Compound `NC(Cc1cccc(C(Br)P(=O)(O)O)c1)C(=O)O` (configuration not stated) showed a 50% inhibitory concentration (IC50) of 50 µM.

`NC(C(=O)O)c1ccc(CCP(=O)(O)O)cc1` (configuration not stated) came in with a half-inhibitory concentration (IC50) above 100 µM.

Take `NC(C(=O)O)c1cc(=O)[nH]o1` (configuration not stated): the IC50 worked out at 10 µM.

`NC(C/C=C/P(=O)(O)O)C(=O)O` (configuration not stated) displayed an IC50 above 10 µM.

In the case of `O=C(O)CNCc1cccc(P(=O)(O)O)c1`, the IC50 was above 100 µM.

`O=C(O)C1CC(CP(=O)(O)O)C2CCCCC2N1` (configuration not stated) displayed a concentration for half-maximal inhibition (IC50) of 9.2 µM. This lies in the single-digit micromolar range.

For the compound `O=C(O)C1Cc2c(cccc2P(=O)(O)O)CN1` (configuration not stated), the IC50 turned out to be 0.82 µM.

In turn, `NC(Cc1cccc(CP(=O)(O)O)c1)C(=O)O` (configuration not stated) registered a concentration for half-maximal inhibition (IC50) of 2.8 µM. Against the preceding compound, the IC50 is about 3.4-fold higher.

`Cc1cc(CP(=O)(O)O)cc(C(=O)O)n1` came in with an IC50 of 10 µM.

The compound `NC(Cc1ccc(P(=O)(O)O)cc1)C(=O)O` (configuration not stated) returned an IC50 above 100 µM.

In turn, `O=P(O)(O)CCCN1CCNCC1` returned a concentration for half-maximal inhibition (IC50) above 100 µM.

`O=C(O)C1CC(CCP(=O)(O)O)C2CCCCC2N1` (configuration not stated) displayed a 50% inhibitory concentration (IC50) of 100 µM.

For `O=C(O)C1CC(CP(=O)(O)O)c2ccccc2N1` (configuration not stated), the half-maximal inhibitory concentration (IC50) was 0.85 µM.

The compound `O=C(O)C1NCCc2ccc(P(=O)(O)O)cc21` (configuration not stated) yielded an IC50 of 2.7 µM.

Regarding `O=C(O)C1Cc2c(cccc2CP(=O)(O)O)CN1` (configuration not stated), the concentration for half-maximal inhibition (IC50) turned out to be 1.95 µM.

For `O=C(O)Cc1cccnc1C(=O)O`, the half-inhibitory concentration (IC50) stood at 10 µM.

Take `NC(Cc1cccc(CCP(=O)(O)O)c1)C(=O)O` (configuration not stated): the IC50 was above 100 µM.

`O=C(O)C1CN(C2CCC(P(=O)(O)O)C2)CCN1` (configuration not stated) returned an IC50 of 1.6 µM.

`C/C(=C\C(N)C(=O)O)CP(=O)(O)O` (configuration not stated) [CGP-37849] returned an IC50 of 0.035 µM.

In turn, `O=C(O)CNCc1cccc(CP(=O)(O)O)c1` registered a half-inhibitory concentration (IC50) of 2.2 µM.

In turn, `NC(Cc1ccc(CP(=O)(O)O)cc1)C(=O)O` (configuration not stated) showed an IC50 above 100 µM.

In the case of `Cc1cc(C(N)C(=O)O)c(C)cc1CP(=O)(O)O` (configuration not stated), the IC50 is 21 µM.

For `NC(C(=O)O)c1ccc(CP(=O)(O)O)s1` (configuration not stated), the IC50 came to 0.66 µM.

Turning to `O=C(O)CNCc1ccccc1CP(=O)(O)O`, the 50% inhibitory concentration (IC50) is above 100 µM.

The next assay concerns the target Glutamate NMDA receptor. Kind of assay: Compound was evaluated for its ability to displace [3H]Glu/[3H]-AP5 from rat brain membrane. The class given is tissue-based.
As to `O=C(O)[C@H]1CCCN[C@@H]1C(=O)O`, the IC50 amounted to 10 µM.

Regarding `O=C(O)c1cccnc1C(=O)O` [QUINOLINIC ACID], the IC50 turned out to be 100 µM. Compared with the last compound, the IC50 is about 10-fold higher.

For the compound `Cc1o[nH]c(=O)c1C(N)C(=O)O` (configuration not stated), the IC50 is 110 µM. The IC50 values of the last two compounds are within 1.5-fold of each other.

In the case of `O=C(O)[C@H]1NCCC[C@H]1C(=O)O`, the concentration for half-maximal inhibition (IC50) is 100 µM.

The compound `C=C(C)[C@@H]1CN[C@@H](C(=O)O)[C@@H]1CC(=O)O` gave an IC50 of 100 µM.

`O=C(O)[C@H]1CCN[C@H](C(=O)O)C1` registered an IC50 of 100 µM.

The next assay has as its target T1, Glutamate NMDA receptor (Rattus norvegicus) (UniProt P35439+Q00959+Q00960+Q00961+Q62645+Q8VHN2+Q9R1M7). Nature of the assay: Ability to displace [3H]CPP from NMDA receptor in rat brain membrane was evaluated at 10e-4 M. The class given is cell membranes.
On to `NC(Cc1ccccc1P(=O)(O)O)C(=O)O` (configuration not stated), for which the inhibition (usually how much of the control response was suppressed) was 3%.

Consider `NC(C(=O)O)c1cccc(CCP(=O)(O)O)c1` (configuration not stated), for which the inhibition was found to be 35%.

For the compound `O=C(O)C1Cc2ccc(CP(=O)(O)O)cc2CN1` (configuration not stated), the inhibition was 0%.

In the case of `O=C(O)C1Cc2ccc(CCP(=O)(O)O)cc2CN1` (configuration not stated), the inhibition was 0%.

`O=C(O)C1Cc2ccc(P(=O)(O)O)cc2CN1` (configuration not stated) showed an inhibition of 0%.

Another assay deals with T1, Glutamate NMDA receptor (Rattus norvegicus). Nature of the assay: Ability to displace [3H]CPP from N-methyl-D-aspartate glutamate receptor in rat brain membrane was evaluated at 10e-4 M. The class given is cell membranes.
Compound `O=C(O)C1NCCc2ccc(CCP(=O)(O)O)cc21` (configuration not stated) yielded an inhibition of 22%.

`NC(Cc1ccc(P(=O)(O)O)cc1)C(=O)O` (configuration not stated): the inhibition stood at 10%.

`O=C(O)C1NCCc2c1cccc2P(=O)(O)O` (configuration not stated) had an inhibition of 0%.

The compound `NC(Cc1ccc(CP(=O)(O)O)cc1)C(=O)O` (configuration not stated) gave an inhibition of 1%.
